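Five compound concentrations were applied to cells in 96-well plates for 48 hours; endpoints were derived by simple linear interpolation of the resulting dose-response curve. GI50 = concentration required for 50% inhibition of growth.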 The source made the active and inactive calls. Rule as the data show it: active = GI50 up to about 1.1 µM and inactive = higher.
Assays:
Assay in all cases: DTP human tumour cell line panel, 48 h
[1] = tested on: SK-MEL-5
[2] = tested on: HCT-116
[3] = tested on: OVCAR-4
[4] = tested on: EKVX
[5] = tested on: SK-MEL-2
[6] = tested on: SNB-75
[7] = tested on: M14
[8] = tested on: SK-MEL-28
[9] = tested on: K562
[10] = tested on: NCI-H460
[11] = tested on: HL-60
[12] = tested on: UACC-257
[13] = tested on: NCI-H226
[14] = tested on: RPMI-8226
[15] = tested on: COLO 205
[16] = tested on: KM-20L2
[17] = tested on: NCI-H23
[18] = tested on: MOLT-4
[19] = tested on: HT-29
[20] = tested on: DMS-114

Measured: GI50

CCN(CC)CCC(=O)c1ccccc1
inactive: [1] 91 µM | [2] 17.3 µM | [3] 20.5 µM | [4] 60 µM | [5] > 100 µM | [6] 12.5 µM | [7] 16.8 µM | [8] 16.9 µM | [9] 7.45 µM | [10] 30.8 µM | [11] 12.6 µM | [12] 24.2 µM | [13] > 100 µM | [14] 2.85 µM | [15] > 10 µM | [16] 21.5 µM | [17] 19.1 µM | [18] 19.2 µM | [19] 28.2 µM | [20] 20.3 µM
